Assay results reported in patent publication US20110237672A1, “Use of a cysteine-containing substance to increase the ventilatory activity and erythropoietin production” (2458781 CANADA INC., priority 2001, published 2011).

Key:
Format in all cases: in vivo, human
[1] = tested on: oxygen sensors; assay: placebo-controlled double-blind study: isocapnic hypoxic ventilatory response
Method: The placebo-controlled double-blind study was performed with healthy, normotonic male non-smoking subjects. The subjects had not taken alcohol, caffeine, or any medication at least during the last 24 hours prior to the study. Also, they had not been engaged in extensive physical exercise for at least 12 hours prior to the study. Twenty-eight subjects were recruited into the study and randomized for the treatment with NAC or placebo. NAC (200 mg capsules) or placebo were administered in three doses of 600 mg per day at 8.00 a.m., 4.00 p.m. and 11.00 p.m. In addition, the hypoxic ventilatory response of the subjects was quantitatively determined. The ventilatory activity was determined under two different experimental conditions using an equipment of oxychon-beta. The first measurement, the so-called “isocapnic hypoxic ventilatory response” (isocapnic HVR), was tested under normoxic conditions, i.e., under conditions of normal oxygen concentration and constant carbon dioxide concentration. The second measurement, the so-called poikilocapnic hypoxic ventilatory response (poikilocapnic HVR), was determined under normobaric conditions in a hypoxia chamber with a constant FiO2 of 12%. The term “poikilocapnic” describes study conditions characterized by a variable carbon dioxide concentration in the expiratory air, whereas the term “isocapnic” refers to conditions with a constant carbon dioxide concentration.

[2] = placebo-controlled double-blind study: plasma acid soluble thiol and thiol/disulfide redox status; conditions: healthy male subjects, NAC three doses of 600 mg per day, vs placebo-treated group
Method: (§1) The placebo-controlled double-blind study was performed with healthy, normotonic male non-smoking subjects. The subjects had not taken alcohol, caffeine, or any medication at least during the last 24 hours prior to the study. Also, they had not been engaged in extensive physical exercise for at least 12 hours prior to the study. Twenty-eight subjects were recruited into the study and randomized for the treatment with NAC or placebo. NAC (200 mg capsules) or placebo were administered in three doses of 600 mg per day at 8.00 a.m., 4.00 p.m. and 11.00 p.m. The plasma concentrations of acid soluble thiol (mainly cysteine) and cystine (cysteine disulfide) were determined in the cubital venous blood by a photometric assay and by the amino acid analyzer, respectively. […] The EPO concentration in serum was determined by the help of a commercial EPO ELISA kit.

[3] = tested on: erythropoietin (EPO); assay: placebo-controlled double-blind study: EPO concentration by EPO ELISA kit
Method: as §1

[4] = summary statement of the placebo-controlled double-blind study

Structure (SMILES): CC(=O)N[C@@H](CS)C(=O)O [NAC, N-acetylcysteine]
- increase in ventilatory activity (H, isocapnic hypoxic ventilatory response) between time 1 and time 2 ([1]; before vs 4 days after start of treatment, P value <0.01 (FIG. 2)): significantly different from that of the placebo-treated control group
- isocapnic hypoxic ventilatory response (H), relative change ([1]; healthy male subjects, NAC three doses of 600 mg per day, vs placebo-treated group (FIG. 1)): significantly increased
- ventilatory activity [1, 4]: increase
- plasma thiol concentration (T), relative change ([2]; P<0.01 (FIG. 1)): significantly increased
- plasma thiol/disulfide redox status (thiol^2 disulfide^−1), relative change ([2]; P<0.05 (FIG. 1)): increased
- plasma EPO concentration after exposure to the hypoxia chamber (Eh), relative change ([3]; 2 hrs after the 6-hr-exposure to the hypoxia chamber, vs placebo-treated group, P<0.05 (FIG. 1)): increased
- plasma EPO concentration (E), relative change ([3]; before exposure to the hypoxia chamber, vs placebo-treated group, P<0.05 (FIG. 1)): increased
- increase in plasma EPO concentration (E) between time 1 and time 2 ([3]; before vs 5 days after start of treatment, P value <0.05 (FIG. 2)): significantly different from that of the placebo-treated control group
- plasma erythropietin concentration [3, 4]: increase
